We go through nine compounds from patent publication US11987586B1 (TAKEDA PHARMACEUTICAL COMPANY LIMITED, priority 2022, dated 2024).

The target of this test is T1, human OX2 receptor (Homo sapiens, UniProt O43614).
T1 construct: expressed in transfected cells
T1 sequence (O43614 1-444): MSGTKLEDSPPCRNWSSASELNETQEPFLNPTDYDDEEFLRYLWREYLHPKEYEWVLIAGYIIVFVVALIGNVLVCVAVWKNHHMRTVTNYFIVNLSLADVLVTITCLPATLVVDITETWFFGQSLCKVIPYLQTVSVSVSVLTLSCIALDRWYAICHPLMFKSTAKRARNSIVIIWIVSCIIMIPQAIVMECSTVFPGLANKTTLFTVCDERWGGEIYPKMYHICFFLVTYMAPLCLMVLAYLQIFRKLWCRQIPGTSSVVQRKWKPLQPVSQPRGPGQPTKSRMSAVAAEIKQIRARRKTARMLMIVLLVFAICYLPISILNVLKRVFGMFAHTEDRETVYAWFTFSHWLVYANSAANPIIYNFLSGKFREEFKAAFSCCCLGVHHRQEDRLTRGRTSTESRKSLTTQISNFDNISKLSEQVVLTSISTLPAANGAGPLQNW
Briefly: Measurement of orexin type 2 receptor agonist activity (calcium fluorescence, Fluo-4, FDSS). The test is classed as cell-based. The conditions noted are these: 3 uM test compound; CHO cells expressing human OX2 receptor; DMSO = 0%, 10 nM orexin A (human) = 100%. As to the method: In order to obtain cell clones that stably express human orexin type 2 receptor, human orexin type 2 (residues 1-444, NCBI Reference Sequence: AK314279) was constructed in a pcDNA3.1 (+) vector (Invitrogen) to express in mammalian cells. This plasmid DNA was transfected into CHO-K1 cells by electroporation, and stable clones were obtained by limiting dilution using resistance to G418 as a selection marker.
CHO cells in which human OX2 receptor was forcibly expressed were seeded at 10,000 cells/well into a 384-well black transparent bottom plate (BD falcon), and were incubated at 37° C., 5% CO2 for 1 day after incubation at room temperature for 30 minutes. After removing the cell plate medium, assay buffer containing calcium indicator A (HBSS (Thermo Fisher Scientific), 20 mM HEPES (Thermo Fisher Scientific), 0.1% BSA (Sigma-Aldrich), 2.5 μg/mL Fluo-4 AM (Dojin Kagaku), 0.08% Pluronic F127 (Dojin Kagaku), 1.25 mM probenecid (Dojin Kagaku)) was added at 30 μL/well. After incubation in a 5% CO2 incubator at 37° C. for 30 minutes, it was incubated at room temperature for another 30 minutes. Add 10 μL/well of the test compound diluted with assay buffer B (HBSS, 20 mM HEPES, 0.1% BSA), and use FDSS μCELL (Hamamatsu Photonics) to measure the fluorescence value every 1 second for 1 minute, and then every 2 seconds for 1 minute. It was measured for 1 minute and 40 seconds. The amount of fluorescence value when DMSO is added instead of the test compound is defined as 0%, and the amount of fluorescence value when orexin A (human) (Peptide Institute) with a final concentration of 10 nM is added is defined as 100%. The activity (%) of the test compound was calculated.
For the compound `CS(=O)(=O)N[C@@H]1Cn2c(cn(-c3noc4cc(Cl)cc(-c5c(F)cc(F)cc5F)c34)c2=O)C1(F)F` [Example 90, N-{(6R)-2-[6-chloro-4-(2,4,6-trifluorophenyl)-1,2-benzoxazol-3-yl]-7,7-difluoro-3-oxo-2,5,6,7-tetrahydro-3H-pyrrolo[1,2-c]imidazol-6-yl}methanesulfonamide], the “OX2R agonist activity (3 uM, %)” value is given as 107%. Take `CS(=O)(=O)N[C@@H]1CN2C(=O)N(c3noc4cccc(-c5c(F)cc(F)cc5F)c34)C(O)[C@@H]2C1(F)F` (relative stereo) [Example 125, N-{(1R*,6R,7aR)-7,7-difluoro-1-hydroxy-3-oxo-2-[4-(2,4,6-trifluorophenyl)-1,2-benzoxazol-3-yl]hexahydro-1H-pyrrolo[1,2-c]imidazol-6-yl}methanesulfonamide]: the “OX2R agonist activity (3 uM, %)” value is recorded as 103%. To `COCc1cc2onc(-n3cc4n(c3=O)C[C@@H](NS(C)(=O)=O)C4(F)F)c2c(-c2c(F)cccc2F)c1F` [Example 226, N-{(6R)-2-[4-(2,6-difluorophenyl)-5-fluoro-6-(methoxymethyl)-1,2-benzoxazol-3-yl]-7,7-difluoro-3-oxo-2,5,6,7-tetrahydro-3H-pyrrolo[1,2-c]imidazol-6-yl}methanesulfonamide] belongs 93%.

For the compound `CCS(=O)(=O)N[C@H]1Cc2cn(-c3cnn4cccc(-c5c(F)cccc5F)c34)c(=O)n2C1` [Example 2, N-{(6S)-2-[4-(2,6-difluorophenyl)pyrazolo[1,5-a]pyridin-3-yl]-3-oxo-2,5,6,7-tetrahydro-3H-pyrrolo[1,2-c]imidazol-6-yl}ethanesulfonamide], the “OX2R agonist activity (3 uM, %)” value is 108%. In the case of `O=C1N(c2noc3cc(F)cc(-c4c(F)cccc4F)c23)CC[C@H]2N1C[C@@H](NS(=O)(=O)C1CC1)C2(F)F` [Example 271, N-{(4aR,6R)-2-[4-(2,6-difluorophenyl)-6-fluoro-1,2-benzoxazol-3-yl]-5,5-difluoro-1-oxooctahydropyrrolo[1,2-c]pyrimidin-6-yl}cyclopropanesulfonamide] it was 107%.

Take `CCS(=O)(=O)N[C@@H]1CN2C(=O)N(c3noc4ccc(F)c(-c5c(F)cccc5F)c34)CC[C@@H]2C1(F)F` [Example 269, N-{(4aR,6R)-2-[4-(2,6-difluorophenyl)-5-fluoro-1,2-benzoxazol-3-yl]-5,5-difluoro-1-oxooctahydropyrrolo[1,2-c]pyrimidin-6-yl}ethanesulfonamide]: the “OX2R agonist activity (3 uM, %)” value is 104%. To `CCS(=O)(=O)N[C@@H]1CN2C(=O)N(c3noc4cc(Cl)c(F)c(-c5c(F)cc(F)cc5F)c34)C[C@@H]2C1(F)F` [Example 93, N-{(6R,7aR)-2-[6-chloro-5-fluoro-4-(2,4,6-trifluorophenyl)-1,2-benzoxazol-3-yl]-7,7-difluoro-3-oxohexahydro-1H-pyrrolo[1,2-c]imidazol-6-yl}ethanesulfonamide] belongs 99%; to `COc1cc(-c2c(F)cc(F)cc2F)c2c(-n3cc4n(c3=O)C[C@@H](NS(C)(=O)=O)C4(F)F)noc2n1` [Example 250, N-{(6R)-7,7-difluoro-2-[6-methoxy-4-(2,4,6-trifluorophenyl)[1,2]oxazolo[5,4-b]pyridin-3-yl]-3-oxo-2,5,6,7-tetrahydro-3H-pyrrolo[1,2-c]imidazol-6-yl}methanesulfonamide], 99%; to `O=C1N(c2noc3cccc(-c4ncc(F)cc4F)c23)CC[C@H]2N1C[C@@H](NS(=O)(=O)C1CC1)C2(F)F` [Example 319, N-{(4aR,6R)-2-[4-(3,5-difluoropyridin-2-yl)-1,2-benzoxazol-3-yl]-5,5-difluoro-1-oxooctahydropyrrolo[1,2-c]pyrimidin-6-yl}cyclopropanesulfonamide], 107%.
